Results as given in patent US9511047B2, “Delphinidin for combating melanoma cells” (priority 2012, dated 2016).

How the values were obtained:
[1] = system: A-375 cells; experiment: Real-time cell analysis of cell number and proliferation, xCELLigence system (Examples 8 and 11); type: cell-based, human
[2] = system: human melanoma cell line A-375; experiment: Induction of apoptosis, sub-G1 peak method (Examples 6 and 9); type: cell-based; settings: A-375, 24 hours; for Induction of apoptosis (sub-G1 peak): 10-3000 μg/ml delphinidin-SBE-β-CD or 15-120 μM delphinidin Cl, low and higher cell confluence (FIGS. 2a, 2b)
[3] = system: human melanoma cell line A-375; experiment: Cell viability test, WST-1 assay (Examples 7 and 10); type: cell-based; settings: A-375, 24 hours; for Cell viability (WST-1 assay): 10-3000 μg/ml delphinidin-SBE-β-CD or 15-120 μM delphinidin Cl, low and higher cell confluence (FIGS. 3a, 3b)
[4] = Stability trials in aqueous solution, 0.9% NaCl, 37° C. (Example 5); type: physicochemical; settings: 0.9% NaCl solution, dark
Method: To determine the delphinidin chloride content in the delphinidin-containing solutions, a reversed-phase HPLC method was used similar to the one already described above. The following reagents were used in this case: […] The solutions were prepared at room temperature and subsequently stored in the dark at 37° C. in closed vials. […] The table below gives the content determined as a percentage of the starting concentration stated above.

[5] = Solubility of delphinidin chloride in aqueous cyclodextrin solutions (Example 1); type: physicochemical; settings: pure water, cyclodextrin concentration 0; stirred 30° C. 20 h in the dark, filtered 0.22 μm
[6] = system: A-375 cells; experiment: Microscopic analysis of cell morphology after 24 hours of treatment; settings: A-375, 24 hours of treatment, high concentrations (FIG. 4)
[7] = system: human dermal microvascular endothelial cells; experiment: Cell vitality, ATP luminescence assay, endothelial cells (Example 12); type: cell-based; settings: 0.1-100 μM (0.1; 3.2; 100 μM); Day 1-Day 4 (FIG. 18)
Excerpt: The human dermal microvascular endothelial cells were obtained by the standard method known to those skilled in the art of Hewett and Murray (1993) [Hewett P. W. and Murray J. C. (1993) Immunomagnetic purification of human microvessel endothelial cells using Dynabeads coated monoclonal antibodies to PECAM-1. Eur J Cell Biol 62: 451-454; Hewett P. W. & Murray J. C. (1993) Human microvessel endothelial cells: Isolation, culture and characterization. In Vitro Cell Biol: 823-830].

Compound: sulfobutyl ether β-cyclodextrin [SBE-β-CD]
- Intensification of TRAIL sensitivity (real-time cell monitoring) ([1]; A-375, high cell confluence, SBE-β-CD 30 or 1000 μg/ml with TRAIL 0.02 μg/ml (FIGS. 16 and 17)): No intensification of TRAIL sensitivity
- Induction of apoptosis (sub-G1 peak) [2]: no effect
- Induction of apoptosis (sub-G1 peak), Example 9 ([2]; complex partner as control (FIG. 11b)): at control level
- Cell viability (WST-1 assay) [3]: no effect
- Cell vitality, Example 10 ([3]; complex partner as control (FIG. 12b)): at control level

Compound: Oc1cc(O)c2cc(O)c(-c3cc(O)c(O)c(O)c3)[o+]c2c1.[Cl-] [delphinidin Cl, delphinidin chloride]
- Delphinidin content as a percentage of the starting concentration ([4]; 0 h, start 1.584 mg/ml (complex) or 0.0216 mg/ml (delphinidin)): 100%
- Delphinidin content as a percentage of the starting concentration ([4]; 1 h): 8.3%
- Delphinidin content as a percentage of the starting concentration ([4]; 2 h): 6.5%
- Delphinidin content as a percentage of the starting concentration ([4]; 3 h): 5.6%
- Delphinidin content as a percentage of the starting concentration ([4]; 4 h): 5.1%
- Concentration at which similarly strong antiproliferative effects are seen ([1]; A-375, high and low cell confluence (FIGS. 7 and 8)): 60 to 120 µM
- Delphinidin chloride, solubility achievable [5]: 70 µg/mL
- Induction of apoptosis (sub-G1 peak) [2]: significant dose-dependent induction of apoptosis
- Cell viability (WST-1 assay) [3]: loss of vital cells with increasing dose
- Morphology of the cells under microscopic analysis [6]: become globular and/or detached
- Cytotoxic effects on endothelial cells (vitality) [7]: no significant cytotoxic effects
